Measured values as given in US20120122860A1, “SOLID FORMS OF SULFONAMIDES AND AMINO ACIDS” (Plexxikon, Inc., priority 2009, published 2012).

Tests used:
C-Raf = C-Raf (Homo sapiens, UniProt P04049); assay: Kinase activity assay, C-Raf
Src = Src (Homo sapiens, UniProt P12931); assay: Kinase activity assay, Src
Btk = Btk (Homo sapiens, UniProt Q06187); assay: Kinase activity assay, Btk
Kit = Kit (Homo sapiens, UniProt P10721); assay: Kinase activity assay, Kit
Fms = Fms (Homo sapiens, UniProt P07333); assay: Kinase activity assay, Fms
B-Raf V600E = B-Raf V600E (Homo sapiens, UniProt P15056, V600E); assay: Kinase activity assay, B-Raf V600E; format: biochemical; conditions: read-out: activity toward kinase B-Raf V600E, IC50
Kdr = Kdr (Homo sapiens, UniProt P35968); assay: Kinase activity assay, Kdr
B-Raf = B-Raf (Homo sapiens, UniProt P15056); assay: Kinase activity assay, B-Raf; format: biochemical; conditions: read-out: activity toward kinase B-Raf, IC50
Chain of B-Raf (P15056 whole entry): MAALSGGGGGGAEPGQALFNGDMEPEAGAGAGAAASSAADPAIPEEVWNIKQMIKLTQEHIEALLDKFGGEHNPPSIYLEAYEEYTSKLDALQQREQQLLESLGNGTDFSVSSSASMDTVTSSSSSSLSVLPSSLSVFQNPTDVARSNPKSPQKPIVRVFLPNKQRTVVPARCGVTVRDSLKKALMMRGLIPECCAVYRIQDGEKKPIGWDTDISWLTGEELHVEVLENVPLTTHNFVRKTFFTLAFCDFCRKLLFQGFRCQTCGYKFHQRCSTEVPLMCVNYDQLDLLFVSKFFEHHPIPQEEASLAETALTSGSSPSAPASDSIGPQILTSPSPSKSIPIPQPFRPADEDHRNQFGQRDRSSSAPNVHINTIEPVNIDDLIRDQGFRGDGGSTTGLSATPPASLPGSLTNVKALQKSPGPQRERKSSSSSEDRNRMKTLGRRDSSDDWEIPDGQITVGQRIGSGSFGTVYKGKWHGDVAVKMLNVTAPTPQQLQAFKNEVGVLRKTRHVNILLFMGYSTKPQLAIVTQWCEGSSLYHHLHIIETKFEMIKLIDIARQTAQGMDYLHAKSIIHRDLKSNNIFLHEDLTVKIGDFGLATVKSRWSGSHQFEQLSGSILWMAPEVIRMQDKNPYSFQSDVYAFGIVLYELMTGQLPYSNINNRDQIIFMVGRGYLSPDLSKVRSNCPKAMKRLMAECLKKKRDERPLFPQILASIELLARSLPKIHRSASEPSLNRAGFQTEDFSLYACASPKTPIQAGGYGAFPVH

Chain of Fms (P07333 20-972): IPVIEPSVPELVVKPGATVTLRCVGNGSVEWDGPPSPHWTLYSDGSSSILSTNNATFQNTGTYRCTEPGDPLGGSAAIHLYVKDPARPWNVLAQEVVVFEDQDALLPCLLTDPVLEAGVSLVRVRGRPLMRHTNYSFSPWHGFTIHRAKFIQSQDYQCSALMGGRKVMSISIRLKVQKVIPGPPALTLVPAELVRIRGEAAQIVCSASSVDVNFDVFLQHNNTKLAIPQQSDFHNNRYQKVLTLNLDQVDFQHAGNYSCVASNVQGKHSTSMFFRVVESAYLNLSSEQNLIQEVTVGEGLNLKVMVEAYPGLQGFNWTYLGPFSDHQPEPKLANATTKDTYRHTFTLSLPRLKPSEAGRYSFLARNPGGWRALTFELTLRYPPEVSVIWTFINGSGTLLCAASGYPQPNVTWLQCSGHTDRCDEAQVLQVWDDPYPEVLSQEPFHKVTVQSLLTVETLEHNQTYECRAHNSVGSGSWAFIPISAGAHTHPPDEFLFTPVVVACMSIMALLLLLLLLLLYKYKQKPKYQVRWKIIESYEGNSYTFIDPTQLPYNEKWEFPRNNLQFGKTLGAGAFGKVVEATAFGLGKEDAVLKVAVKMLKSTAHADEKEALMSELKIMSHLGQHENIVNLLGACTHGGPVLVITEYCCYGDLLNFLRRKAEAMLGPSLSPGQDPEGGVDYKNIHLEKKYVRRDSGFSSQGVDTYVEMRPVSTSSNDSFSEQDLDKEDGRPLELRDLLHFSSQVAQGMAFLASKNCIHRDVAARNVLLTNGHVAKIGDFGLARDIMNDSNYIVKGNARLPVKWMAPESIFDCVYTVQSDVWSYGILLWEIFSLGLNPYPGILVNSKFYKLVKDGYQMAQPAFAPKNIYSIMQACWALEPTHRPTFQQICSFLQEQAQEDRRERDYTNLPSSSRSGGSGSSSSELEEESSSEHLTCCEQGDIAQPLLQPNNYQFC
Chain of C-Raf (P04049 whole entry): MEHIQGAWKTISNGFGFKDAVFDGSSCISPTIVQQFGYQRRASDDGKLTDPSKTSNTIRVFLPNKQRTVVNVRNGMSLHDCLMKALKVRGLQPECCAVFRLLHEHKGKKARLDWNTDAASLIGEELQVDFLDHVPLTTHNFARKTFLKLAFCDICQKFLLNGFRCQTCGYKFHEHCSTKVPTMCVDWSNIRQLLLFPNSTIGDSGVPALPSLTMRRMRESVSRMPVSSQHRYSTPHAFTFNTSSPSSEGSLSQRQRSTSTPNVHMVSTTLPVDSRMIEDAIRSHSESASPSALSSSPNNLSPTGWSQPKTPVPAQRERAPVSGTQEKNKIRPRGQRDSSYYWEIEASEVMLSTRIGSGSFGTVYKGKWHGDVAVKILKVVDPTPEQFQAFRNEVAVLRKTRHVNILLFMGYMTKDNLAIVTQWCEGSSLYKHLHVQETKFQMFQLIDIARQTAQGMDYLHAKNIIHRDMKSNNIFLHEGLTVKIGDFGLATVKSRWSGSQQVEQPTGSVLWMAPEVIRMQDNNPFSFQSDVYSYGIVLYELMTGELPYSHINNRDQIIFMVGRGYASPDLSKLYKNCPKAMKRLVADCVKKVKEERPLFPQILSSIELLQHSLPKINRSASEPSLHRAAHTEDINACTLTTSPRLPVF
Chain of Kdr (P35968 20-1356): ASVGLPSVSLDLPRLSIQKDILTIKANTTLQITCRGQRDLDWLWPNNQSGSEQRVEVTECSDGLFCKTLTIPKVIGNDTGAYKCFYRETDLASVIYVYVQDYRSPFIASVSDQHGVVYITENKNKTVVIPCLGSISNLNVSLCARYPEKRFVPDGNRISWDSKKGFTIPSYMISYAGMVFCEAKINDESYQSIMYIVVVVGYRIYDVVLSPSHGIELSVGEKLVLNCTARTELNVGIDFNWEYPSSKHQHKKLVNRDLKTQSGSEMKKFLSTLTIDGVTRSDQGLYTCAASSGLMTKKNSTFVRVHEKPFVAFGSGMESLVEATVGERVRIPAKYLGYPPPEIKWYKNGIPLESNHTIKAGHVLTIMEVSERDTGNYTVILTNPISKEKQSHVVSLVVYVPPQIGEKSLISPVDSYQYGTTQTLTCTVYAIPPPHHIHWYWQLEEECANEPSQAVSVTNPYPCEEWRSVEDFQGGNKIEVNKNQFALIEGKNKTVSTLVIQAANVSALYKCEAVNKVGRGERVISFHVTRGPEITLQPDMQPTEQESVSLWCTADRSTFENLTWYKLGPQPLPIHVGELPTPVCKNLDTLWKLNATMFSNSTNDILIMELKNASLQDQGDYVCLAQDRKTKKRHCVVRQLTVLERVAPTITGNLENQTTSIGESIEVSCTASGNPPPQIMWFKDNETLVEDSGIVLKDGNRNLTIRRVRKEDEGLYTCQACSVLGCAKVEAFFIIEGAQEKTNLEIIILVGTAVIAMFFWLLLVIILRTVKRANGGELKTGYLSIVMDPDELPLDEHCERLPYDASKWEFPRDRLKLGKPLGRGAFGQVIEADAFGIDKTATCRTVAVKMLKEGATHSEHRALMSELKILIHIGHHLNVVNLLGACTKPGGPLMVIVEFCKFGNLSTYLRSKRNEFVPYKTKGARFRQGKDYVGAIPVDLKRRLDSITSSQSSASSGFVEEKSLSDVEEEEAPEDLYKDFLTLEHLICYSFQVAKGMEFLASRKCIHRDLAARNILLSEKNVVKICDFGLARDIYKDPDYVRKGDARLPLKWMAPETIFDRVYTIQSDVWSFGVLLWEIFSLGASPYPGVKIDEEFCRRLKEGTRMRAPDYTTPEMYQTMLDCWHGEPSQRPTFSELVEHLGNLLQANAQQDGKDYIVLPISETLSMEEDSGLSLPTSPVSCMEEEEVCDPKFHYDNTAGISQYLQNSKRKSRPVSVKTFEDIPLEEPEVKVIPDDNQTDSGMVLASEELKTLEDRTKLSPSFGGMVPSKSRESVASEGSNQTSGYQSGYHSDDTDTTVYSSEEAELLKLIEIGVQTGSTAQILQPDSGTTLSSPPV
Chain of B-Raf V600E (P15056 whole entry V600E): as the sequence (P15056 whole entry) above, with V600E counted along it
Chain of Src (P12931 whole entry): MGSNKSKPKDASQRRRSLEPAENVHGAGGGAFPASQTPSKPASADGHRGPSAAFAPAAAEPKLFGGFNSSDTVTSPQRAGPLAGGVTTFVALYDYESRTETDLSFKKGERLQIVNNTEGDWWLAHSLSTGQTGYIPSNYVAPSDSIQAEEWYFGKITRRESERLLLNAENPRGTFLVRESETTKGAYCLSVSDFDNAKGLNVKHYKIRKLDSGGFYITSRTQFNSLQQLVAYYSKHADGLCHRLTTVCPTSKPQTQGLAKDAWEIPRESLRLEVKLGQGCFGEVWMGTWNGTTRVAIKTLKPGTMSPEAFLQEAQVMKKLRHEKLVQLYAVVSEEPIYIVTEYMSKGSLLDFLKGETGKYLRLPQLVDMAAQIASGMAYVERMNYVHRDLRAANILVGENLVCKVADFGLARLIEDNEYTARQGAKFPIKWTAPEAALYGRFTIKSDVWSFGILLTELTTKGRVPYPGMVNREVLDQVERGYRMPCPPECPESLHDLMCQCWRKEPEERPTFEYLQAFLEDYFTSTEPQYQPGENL
Chain of Btk (Q06187 whole entry): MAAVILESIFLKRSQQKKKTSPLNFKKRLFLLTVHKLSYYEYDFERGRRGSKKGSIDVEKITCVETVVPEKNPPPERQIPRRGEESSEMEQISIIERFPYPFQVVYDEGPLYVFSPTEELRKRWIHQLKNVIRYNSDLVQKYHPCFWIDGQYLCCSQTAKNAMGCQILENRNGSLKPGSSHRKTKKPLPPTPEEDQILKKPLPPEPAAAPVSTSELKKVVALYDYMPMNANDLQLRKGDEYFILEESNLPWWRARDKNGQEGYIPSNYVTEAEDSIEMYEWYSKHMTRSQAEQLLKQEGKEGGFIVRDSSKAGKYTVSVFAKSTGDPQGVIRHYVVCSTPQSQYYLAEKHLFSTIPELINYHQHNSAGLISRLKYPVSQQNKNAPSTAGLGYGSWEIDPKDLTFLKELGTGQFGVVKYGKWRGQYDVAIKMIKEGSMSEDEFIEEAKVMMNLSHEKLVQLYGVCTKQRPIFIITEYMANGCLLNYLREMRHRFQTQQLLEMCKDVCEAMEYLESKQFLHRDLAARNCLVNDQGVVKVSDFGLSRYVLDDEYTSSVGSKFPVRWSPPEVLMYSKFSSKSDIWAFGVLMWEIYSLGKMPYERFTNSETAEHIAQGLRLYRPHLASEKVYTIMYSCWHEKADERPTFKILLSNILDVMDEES

SMILES | IC50 (C-Raf) [µM] | IC50 (Src) [µM] | IC50 (Btk) [µM] | IC50 (Kit) [µM] | IC50 (Fms) [µM] | IC50 (B-Raf V600E) [µM] | IC50 (Kdr) [µM] | IC50 (B-Raf) [µM]
Cn1cc(-c2cnc3[nH]cc(C(=O)c4cc(NS(=O)(=O)c5cccc(C(F)(F)F)c5)ccc4F)c3c2)cn1 [P-2101, N-{4-Fluoro-3-[5-(1-methyl-1H-pyrazol-4-yl)-1H-pyrrolo[2,3-b]pyridine-3-carbonyl]-phenyl}-3-trifluoromethyl-benzenesulfonamide] | ≤ 10 | ≤ 10 | ≤ 10 | ≤ 10 | ≤ 10 | ≤ 10 | ≤ 10 | ≤ 10
Cn1cc(-c2cnc3[nH]cc(C(=O)c4cc(NS(=O)(=O)c5cccc(OC(F)(F)F)c5)ccc4F)c3c2)cn1 [P-2102, N-{4-Fluoro-3-[5-(1-methyl-1H-pyrazol-4-yl)-1H-pyrrolo[2,3-b]pyridine-3-carbonyl]-phenyl}-3-trifluoromethoxy-benzenesulfonamide] |  | ≤ 10 | ≤ 10 | ≤ 10 | ≤ 10 | ≤ 10 | ≤ 10 | ≤ 10
CCCS(=O)(=O)Nc1ccc(F)c(C(=O)c2c[nH]c3ncc(-c4cnn(CC(C)C)c4)cc23)c1F [P-2157, Propane-1-sulfonic acid {2,4-difluoro-3-[5-(1-isobutyl-1H-pyrazol-4-yl)-1H-pyrrolo[2,3-b]pyridine-3-carbonyl]-phenyl}-amide] |  | ≤ 10 | ≤ 10 | ≤ 10 | ≤ 10 | ≤ 10 | ≤ 10 | 
Cn1cc(-c2cnc3[nH]cc(C(=O)c4cc(NS(=O)(=O)C5CC5)ccc4F)c3c2)cn1 [P-2433, Cyclopropanesulfonic acid {4-fluoro-3-[5-(1-methyl-1H-pyrazol-4-yl)-1H-pyrrolo[2,3-b]pyridine-3-carbonyl]-phenyl}-amide] |  | ≤ 10 | ≤ 10 | ≤ 10 | ≤ 10 | ≤ 10 | ≤ 10 | 
O=C(c1c(F)ccc(NS(=O)(=O)C2CC2)c1F)c1c[nH]c2ncc(-c3ccc(F)cc3)cc12 [P-2351, Cyclopropanesulfonic acid {2,4-difluoro-3-[5-(4-fluoro-phenyl)-1H-pyrrolo[2,3-b]pyridine-3-carbonyl]-phenyl}-amide] |  | ≤ 10 | ≤ 10 | ≤ 10 | ≤ 10 | ≤ 10 | ≤ 10 | ≤ 10
CCCS(=O)(=O)Nc1ccc(F)c(C(=O)c2c[nH]c3ncc(-c4c(C)nn(C)c4C)cc23)c1F [P-2158, Propane-1-sulfonic acid {2,4-difluoro-3-[5-(1,3,5-trimethyl-1H-pyrazol-4-yl)-1H-pyrrolo[2,3-b]pyridine-3-carbonyl]-phenyl}-amide] |  | ≤ 10 | ≤ 10 | ≤ 10 | ≤ 10 | ≤ 10 | ≤ 10 | 
CCCS(=O)(=O)Nc1ccc(F)c(C(=O)c2c[nH]c3ncc(-c4ccc(OC)nc4OC)cc23)c1F [P-2184, Propane-1-sulfonic acid {3-[5-(2,6-dimethoxy-pyridin-3-yl)-1H-pyrrolo[2,3-b]pyridine-3-carbonyl]-2,4-difluoro-phenyl}-amide] |  | ≤ 10 | ≤ 10 | ≤ 10 | ≤ 10 | ≤ 10 | ≤ 10 | ≤ 10
CCCS(=O)(=O)Nc1ccc(F)c(C(=O)c2c[nH]c3ncc(-c4cnn(C)c4)cc23)c1Cl [P-2429, Propane-1-sulfonic acid {2-chloro-4-fluoro-3-[5-(1-methyl-1H-pyrazol-4-yl)-1H-pyrrolo[2,3-b]pyridine-3-carbonyl]-phenyl}-amide] |  | ≤ 10 | ≤ 10 |  | ≤ 10 | ≤ 10 |  | 

Other lines, results leading:

IC50 (C-Raf) [µM] | IC50 (Src) [µM] | IC50 (Btk) [µM] | IC50 (Kit) [µM] | IC50 (Fms) [µM] | IC50 (B-Raf V600E) [µM] | IC50 (Kdr) [µM] | IC50 (B-Raf) [µM] | SMILES
≤ 10 | ≤ 10 | ≤ 10 | ≤ 10 | ≤ 10 | ≤ 10 | ≤ 10 | ≤ 10 | CCCS(=O)(=O)Nc1ccc(F)c(C(=O)c2c[nH]c3ncc(-c4ccc(OCCCN(C)C)nc4)cc23)c1F [P-2178, Propane-1-sulfonic acid (3-{5-[6-(3-dimethylamino-propoxy)-pyridin-3-yl]-1H-pyrrolo[2,3-b]pyridine-3-carbonyl}-2,4-difluoro-phenyl)-amide]
 | ≤ 10 | ≤ 10 | ≤ 10 | ≤ 10 | ≤ 10 | ≤ 10 | ≤ 10 | CCCS(=O)(=O)Nc1ccc(F)c(C(=O)c2c[nH]c3ncc(-c4cnn(Cc5ccccc5)c4)cc23)c1F [P-2190, Propane-1-sulfonic acid {3-[5-(1-benzyl-1H-pyrazol-4-yl)-1H-pyrrolo[2,3-b]pyridine-3-carbonyl]-2,4-difluoro-phenyl}-amide]
 | ≤ 10 | ≤ 10 | ≤ 10 | ≤ 10 | ≤ 10 | ≤ 10 | ≤ 10 | Cn1cc(-c2cnc3[nH]cc(C(=O)c4cc(NS(=O)(=O)c5cccc(Cl)c5)ccc4F)c3c2)cn1 [P-2103, 3-Chloro-N-{4-fluoro-3-[5-(1-methyl-1H-pyrazol-4-yl)-1H-pyrrolo[2,3-b]pyridine-3-carbonyl]-phenyl}-benzenesulfonamide]
 | ≤ 10 | ≤ 10 | ≤ 10 | ≤ 10 | ≤ 10 | ≤ 10 |  | CCCS(=O)(=O)Nc1ccc(F)c(C(=O)c2c[nH]c3ncc(-c4ccc(F)c(OC)c4)cc23)c1F [P-2159, Propane-1-sulfonic acid {2,4-difluoro-3-[5-(4-fluoro-3-methoxy-phenyl)-1H-pyrrolo[2,3-b]pyridine-3-carbonyl]-phenyl}-amide]
 |  | ≤ 10 | ≤ 10 | ≤ 10 | ≤ 10 | ≤ 10 |  | CCCS(=O)(=O)Nc1cccc(C(=O)c2c[nH]c3ncc(Cl)cc23)c1 [P-2449, Propane-1-sulfonic acid [3-(5-chloro-1H-pyrrolo[2,3-b]pyridine-3-carbonyl)-phenyl]-amide]
 |  | ≤ 10 | ≤ 10 | ≤ 10 | ≤ 10 | ≤ 10 |  | Cn1cc(-c2cnc3[nH]cc(C(=O)c4cccc(NS(=O)(=O)C5CC5)c4)c3c2)cn1 [P-2456, Cyclopropanesulfonic acid {3-[5-(1-methyl-1H-pyrazol-4-yl)-1H-pyrrolo[2,3-b]pyridine-3-carbonyl]-phenyl}-amide]
≤ 10 | ≤ 10 | ≤ 10 | ≤ 10 | ≤ 10 |  | ≤ 10 |  | O=C(c1c(F)ccc(NS(=O)(=O)C2CC2)c1F)c1c[nH]c2ncc(-c3ccc(Cl)cc3)cc12 [P-2350, Cyclopropanesulfonic acid {3-[5-(4-chloro-phenyl)-1H-pyrrolo[2,3-b]pyridine-3-carbonyl]-2,4-difluoro-phenyl}-amide]
 | ≤ 10 | ≤ 10 | ≤ 10 | ≤ 10 | ≤ 10 | ≤ 10 | ≤ 10 | CCCS(=O)(=O)Nc1ccc(F)c(C(=O)c2c[nH]c3ncc(-c4ccc(S(N)(=O)=O)cc4)cc23)c1F [P-2194, 4-{3-[2,6-Difluoro-3-(propane-1-sulfonylamino)-benzoyl]-1H-pyrrolo[2,3-b]pyridin-5-yl}-benzenesulfonamide]
